The test system of data set [1] is 20-HETE synthase originated from rat kidney microsome. Description: Inhibitory effect of 20-HETE synthase originated from rat kidney microsome. In kind it is biochemical. As to conditions: for Inhibition rate (1 μM): 20-HETE production without compound set to 100%; for IC50: concentration at which production of 20-HETE was inhibited to 50%. The method, then:
Experimental Example [Inhibitory effect of 20-HETE synthase originated from rat kidney microsome]
Regarding the compounds listed in Table 1, their inhibitory activity to production of 20-HETE was examined.
The subject compound for this examination was added to a buffer comprising 50 mM of 3-morpholinopropane sulfonic acid (pH7.4), 5 mM of magnesium chloride and 1 mM of ethylenediaminetetraacetic acid (EDTA) disodium salt.
After that, the rat kidney microsome (microsome fraction prepared from the kidney of a spontaneous hypertension rat (male, 6 weeks of age)) as an enzyme, [5,6,8,9,11,12,14,15] tritium-arachidonic acid (supplied by Amasham) as a substrate, and NADPH (supplied by Sigma) as a coenzyme were added and reacted for 1.5 hours at 37° C.
After the reaction, formic acid was added to stop the reaction, and then acetonitrile (final concentration of 50%) was added and left for 1.5 hours at room temperature.
The activity of 20-HETE synthase was measured by using a high performance liquid chromatograph having a detector for radioactive substances (supplied by Gilson), and equipped with a C18 reversed phase column (Biocyl C18, supplied by Bio-rad).

The mark [2] stands for this setting: 1 μM of the subject compound added, rat kidney microsome.
Where [3] appears, read: 1 μM of subject compound, rat kidney microsome.

As a reminder, the melting point is the temperature, or range, at which the solid turns liquid. Take `CC(C)(C)c1ccc(N/C=N/O)cc1` [Comp. 2, N-(4-tert-butylphenyl)-N′-hydroxy-formamidine]: the melting point is 113.5 to 114.5 °C.
In turn, `CCCCc1ccccc1N/C=N/O` [Comp. 3] returned a melting point of 84.5 to 85.5 °C. Moreover, the “Inhibition rate (1 μM)” value in data set [1] (setting [2]) amounted to 98.9.
Consider `CCC(C)c1ccc(N/C=N/O)cc1` (stereo not drawn) [Comp. 4], for which the melting point is 101 to 102.5 °C.
The term IC50 denotes the concentration at which inhibition is half-maximal. Read a high IC50 as weaker potency in that assay. `O/N=C/Nc1ccc(C2CCCCC2)cc1` [Comp. 5] gave a melting point of 153 to 154 °C. The “Inhibition rate (1 μM)” value in data set [1] (setting [2]) was found to be 99.9. Moreover, it took 3.8 nM to reach half-maximal inhibition in data set [1] (rat kidney microsome) (IC50).
`COc1ccc(C(C)(C)C)cc1N/C=N/O` [Comp. 6] came in with a melting point of 119.5 to 120.5 °C. Also, in data set [1] (setting [2]), the “Inhibition rate (1 μM)” value is listed as 99.9.
On to `CCCCCc1ccc(N/C=N/O)cc1` [Comp. 7], for which the melting point was 122.5 to 124 °C. The “Inhibition rate (1 μM)” value in data set [1] (setting [2]) stood at 110.5. In data set [1] (rat kidney microsome), the midpoint of inhibition, the IC50, lay at 12.1 nM.
Take `CC(C)(C)c1ccccc1N/C=N/O.Cl` [Comp. 8]: the melting point fell in the range of 141 to 142 °C. In addition, in data set [1] (setting [2]), the “Inhibition rate (1 μM)” value was determined as 99.9.
With `CCCCCCc1ccc(N/C=N/O)cc1` [Comp. 9], the melting point was 108 to 110 °C.
As for `Cc1ccc(N/C=N/O)cc1` [Comp. 10], the melting point was in the range of 143.5 to 144.5 °C.
`Cc1ccc(N/C=N/O)c(Cl)c1` [Comp. 11] yielded a melting point of 151 to 152.5 °C. In addition, in data set [1] (setting [2]), the “Inhibition rate (1 μM)” value was 92.7. For the same compound, in data set [1] (rat kidney microsome), the 50% inhibitory concentration (IC50) worked out at 297 nM.
Taken in the same sequence, the figures for `O/N=C/Nc1ccc(F)cc1` [Comp. 12] were 139.5 to 140.5 °C, 77.1 and 1420 nM.
Take `Cc1ccc(N/C=N/O)cc1C` [Comp. 13]: the melting point fell in the range of 116 to 118 °C. In addition, the “Inhibition rate (1 μM)” value in data set [1] (setting [2]) is 95.9. Moreover, the IC50 in data set [1] (rat kidney microsome) turned out to be 118 nM.
Consider `Cc1ccc(Cl)c(N/C=N/O)c1` [Comp. 14], for which the melting point was 151 to 153 °C. For the same compound, the “Inhibition rate (1 μM)” value in data set [1] (setting [2]) was determined as 91.7. Also, the IC50 in data set [1] (rat kidney microsome) was found to be 163 nM.
For the compound `O/N=C/Nc1ccc(Cl)cc1` [Comp. 15], the melting point was 155.5 to 156 °C. Moreover, in data set [1] (setting [2]), the “Inhibition rate (1 μM)” value is 92.9. The concentration for half-maximal inhibition (IC50) in data set [1] (rat kidney microsome) is 288 nM.
`CCc1ccc(N/C=N/O)cc1` [Comp. 16]: the melting point is 141 to 142 °C.
The compound `COc1ccc(C)cc1N/C=N/O` [Comp. 17] gave a melting point of 136.5 to 139 °C. In data set [1] (setting [2]), the “Inhibition rate (1 μM)” value amounted to 85.3.
Compound `COc1ccc(N/C=N/O)cc1` [Comp. 18] had a melting point of 139 to 140 °C. Besides, in data set [1] (setting [2]), the “Inhibition rate (1 μM)” value was found to be 94.6. In data set [1] (rat kidney microsome), this compound registered a 50% inhibitory concentration (IC50) of 45.2 nM.
`COc1ccc(N/C=N/O)c(C)c1` [Comp. 19] came in with a melting point of 144 to 145 °C. In addition, in data set [1] (setting [2]), the “Inhibition rate (1 μM)” value came to 88.0. In addition, half-maximal inhibition in data set [1] (rat kidney microsome) (IC50) was put at 338 nM.
Consider `CCOc1ccc(N/C=N/O)cc1` [Comp. 20], for which the melting point is 149 to 150 °C. Also, the “Inhibition rate (1 μM)” value in data set [1] (setting [2]) is on record as 97.5. Moreover, in data set [1] (rat kidney microsome), the IC50 is 228 nM.
`CCc1cccc(N/C=N/O)c1` [Comp. 21]: the melting point was in the range of 115.5 to 116.5 °C. Also, the “Inhibition rate (1 μM)” value in data set [1] (setting [2]) stood at 81.1.
Compound `O/N=C/Nc1cccc(Cl)c1` [Comp. 23] yielded a melting point of 110 to 111.5 °C. Besides, in data set [1] (setting [2]), the “Inhibition rate (1 μM)” value was found to be 82.8. The compound also yielded an IC50 in data set [1] (rat kidney microsome) of 476 nM.
The compound `O/N=C/Nc1ccc(Cl)c(Cl)c1` [Comp. 24] yielded a melting point of 119 to 120.5 °C. Also, the “Inhibition rate (1 μM)” value in data set [1] (setting [2]) turned out to be 89.2. Besides, the IC50 in data set [1] (rat kidney microsome) was determined as 520 nM.
For `CC(C)c1ccc(N/C=N/O)cc1` [Comp. 30], the melting point lay in the range of 143 to 143.5 °C.
The compound `COC(=O)c1ccc(N/C=N/O)cc1` [Comp. 37] came in with a melting point of 167 to 167.5 °C.
The compound `CCCc1cc(Br)c(N/C=N/O)c(Br)c1` [Comp. 48] showed a melting point of 155 to 156 °C.
Same read-out and setting: the same measure for `COc1cccc(C)c1N/C=N/O` [Comp. 52]: 145 to 146 °C; for `CCc1cc(Br)cc(CC)c1N/C=N/O` [Comp. 53]: 159 to 160 °C; for `COc1cc(N/C=N/O)cc(OC)c1OC` [Comp. 103]: 143 to 146 °C.
On the same count and under the same terms, the same measure for `CCOC(=O)c1cccc(N/C=N/O)c1` [Comp. 127]: 137.5 to 138.5 °C; for `COC(=O)c1cc(N/C=N/O)cc(C(=O)OC)c1` [Comp. 129]: 183 to 183.5 °C; for `CCCCc1ccc(C)c(N/C=N/O)c1` [Comp. 133]: 116.5 to 117.5 °C.
Take `O/N=C/Nc1ccc2c(c1)OCO2` [Comp. 230]: the melting point fell in the range of 165 to 165.5 °C.
The compound `O/N=C/Nc1ccc(Cc2ccccc2)cc1` [Comp. 233] had a melting point of 118 to 119.5 °C.
Regarding `NS(=O)(=O)c1ccccc1N/C=N/O` [Comp. 236, N-(2-aminosulfonylphenyl)-N′-hydroxyformamidine], the melting point was 130.5 to 131.5 °C.
As for `O/N=C/Nc1ccc(N2CCOCC2)c(Cl)c1` [Comp. 302], the melting point lay within 177.5 to 178 °C.
`CCCOc1ccc(N/C=N/O)cc1` [Comp. 317]: the melting point was in the range of 132 to 133 °C.
As to `O/N=C/Nc1ccc(OCC2CCCCCC2)cc1` [Comp. 370], the “Inhibition rate (1 μM)” value in data set [1] (setting [3]) is listed as 113.7.
With `Cc1ccc(CCOc2ccc(N/C=N/O)cc2)cc1` [Comp. 372], the “Inhibition rate (1 μM)” value in data set [1] (setting [3]) is 100.5.
The same measure, in the same setting: as for `COc1ccc(CCCOc2ccc(N/C=N/O)cc2)cc1OC` [Comp. 374], the figure is 119.1; as for `COc1ccc(CCCOc2ccc(N/C=N/O)cc2)cc1` [Comp. 375], 117.7.
Still for that read-out and setting: as for `O/N=C/Nc1ccc(OCCc2cccc(Br)c2)cc1` [Comp. 376], the figure is 114.9.
For `CCOC(=O)CCCCCOc1ccc(N/C=N/O)cc1` [Comp. 378], the “Inhibition rate (1 μM)” value in data set [1] (setting [3]) is reported as 102.4.
As for `COc1ccccc1CCOc1ccc(N/C=N/O)cc1` [Comp. 379], the “Inhibition rate (1 μM)” value in data set [1] (setting [3]) was 105.4.
The same measure, in the same setting: the same measure for `CC(C)=CCCC(C)CCOc1ccc(N/C=N/O)cc1` (stereo not drawn) [Comp. 380]: 118.9; for `O/N=C/Nc1ccc(OCCCCc2ccccc2)cc1` [Comp. 381]: 116.0; for `Cc1ccc(COc2ccc(N/C=N/O)cc2)cc1` [Comp. 383]: 116.2.
With `O/N=C/Nc1ccc(OCc2ccccc2CCc2ccccc2)cc1` [Comp. 386], the “Inhibition rate (1 μM)” value in data set [1] (setting [3]) amounted to 105.2.
As to `O/N=C/Nc1ccc(OCc2cccc(Oc3ccccc3)c2)cc1` [Comp. 388], the “Inhibition rate (1 μM)” value in data set [1] (setting [3]) stood at 96.2.
Regarding `COC(=O)c1ccc(COc2ccc(N/C=N/O)cc2)cc1` [Comp. 396], the “Inhibition rate (1 μM)” value in data set [1] (setting [3]) is 102.7.
Consider `O/N=C/Nc1ccc(OCc2ccc(-c3ccccc3)cc2)cc1` [Comp. 397], for which, in data set [1] (setting [3]), the “Inhibition rate (1 μM)” value is recorded as 99.3.
As to `CCN(CC)CCOCCOc1ccc(N/C=N/O)cc1` [Comp. 398], in data set [1] (1 μM of the subject compound), the “Inhibition rate (1 μM)” value was 95.2. This compound registered an IC50 in data set [1] of 2.4 nM.
As to `CCN(CCOc1ccc(N/C=N/O)cc1)c1cccc(C)c1` [Comp. 405], the “Inhibition rate (1 μM)” value in data set [1] (1 μM of the subject compound) is 116.0.
Same read-out and setting: the same measure for `Cn1c(=O)c2c(ncn2CCOc2ccc(N/C=N/O)cc2)n(C)c1=O` [Comp. 406]: 73.7; for `O/N=C/Nc1ccc(OCCOc2ccccc2)cc1` [Comp. 418]: 120.4; for `O/N=C/Nc1ccc(OCCSc2ccccc2)cc1` [Comp. 419]: 116.1.
In the case of `OCCCCCOc1ccc(N/C=N/O)cc1` [Comp. 427], half-maximal inhibition in data set [1] (IC50) required 2.6 nM. In other words, the single-digit nanomolar range.
In turn, `O/N=C/Nc1ccc(OCCCN2CCCC2)cc1` [Comp. 429] had an IC50 in data set [1] of 79.1 nM.
Consider `O/N=C/Nc1ccc(SCc2ccc(Cl)cc2)cc1` [Comp. 437], for which the “Inhibition rate (1 μM)” value in data set [1] (1 μM of the subject compound) came to 96.1.
Still for that read-out and setting: as for `O/N=C/Nc1ccc(SC2CCCCC2)cc1` [Comp. 438], the figure is 87.9; as for `CCOC(=O)CSc1ccc(N/C=N/O)cc1` [Comp. 440], 102.8; as for `CCCCSc1ccc(N/C=N/O)cc1` [Comp. 442], 95.7.
For `CC(C)CCSc1ccc(N/C=N/O)cc1` [Comp. 443], the “Inhibition rate (1 μM)” value in data set [1] (1 μM of the subject compound) stood at 103.0.
With `COC(=O)CSc1ccc(N/C=N/O)cc1` [Comp. 446], the “Inhibition rate (1 μM)” value in data set [1] (1 μM of the subject compound) is given as 95.9.
Regarding `O/N=C/Nc1ccc(SC2CCCC2)cc1` [Comp. 447], in data set [1] (1 μM of the subject compound), the “Inhibition rate (1 μM)” value came to 95.9.
Consider `CCCCCSc1ccc(N/C=N/O)cc1` [Comp. 450], for which, in data set [1] (1 μM of the subject compound), the “Inhibition rate (1 μM)” value came out at 105.9.
Consider `CCCCCCSc1ccc(N/C=N/O)cc1` [Comp. 451], for which the “Inhibition rate (1 μM)” value in data set [1] (1 μM of the subject compound) was 97.6.
Turning to `CCCCCCCSc1ccc(N/C=N/O)cc1` [Comp. 452], the “Inhibition rate (1 μM)” value in data set [1] (1 μM of the subject compound) is recorded as 112.3.
Still for that read-out and setting: as for `CCCCCCCCCSc1ccc(N/C=N/O)cc1` [Comp. 453], the figure is 95.3; as for `CCN(CC)CCSc1ccc(N/C=N/O)cc1` [Comp. 454], 105.8.
As to `COC(=O)CCSc1ccc(N/C=N/O)cc1` [Comp. 455], the “Inhibition rate (1 μM)” value in data set [1] (1 μM of the subject compound) was determined as 105.6.
Regarding `CCOC(=O)CCSc1ccc(N/C=N/O)cc1` [Comp. 457], the “Inhibition rate (1 μM)” value in data set [1] (1 μM of the subject compound) is on record as 112.6.
In the case of `O/N=C/Nc1ccc(SCCc2ccccc2)cc1` [Comp. 458], in data set [1] (1 μM of the subject compound), the “Inhibition rate (1 μM)” value is 116.0.

Source of the values: patent publication US7078400B2, “20-HETE synthase inhibitor” (Taisho Pharmaceutical Co., Ltd., priority 1999, dated 2006).
